From publication PMC8201255, “A Combined Experimental and Theoretical Study of Nitrofuran Antibiotics: Crystal Structures, DFT Computations, Sublimation and Solution Thermodynamics” (Molecules, 2021)
Where two headings read alike, the source gives them in different places.

Assays:
[1] = 298.15 K, cited from earlier work
[2] = for TΔSsol0 / ΔGsol0 / ΔHsol0 / ΔSsol0: dissolution; for ςHsolv: relative fraction of solvation enthalpy; for ςTSsolv: relative fraction of solvation entropy; for TΔSsolv0 / ΔGsolv0 / ΔHsolv0 / ΔSsolv0: solvation
[3] = Description: Details of the technique are given in the literature. In brief: a flow of the inert gas (N2) through the tube transported the saturated vapor of the sample under investigation at a constant temperature and flow rate. The sample vapor is completely condensed at some point downstream. The sample vapor pressure at this temperature was calculated from the sublimated sample amount and the volume of the inert gas used. The mass of sublimated substance was determined using a spectrophotometer method by means of spectrophotometer Cary-50 (Varian, Australia).
The equipment was calibrated with benzoic acid, as specified in earlier work of our research group.
Absolute vapor pressures for compounds are usually approximated by the Clarke–Glew equation [38].
The value of the sublimation enthalpy is calculated by the Clausius–Clayperon equation:(7) ΔcrgHm0(T)=−R⋅(∂(lnp)/∂(1/T))
The sublimation entropy at a given temperature T is calculated by the following relation:(8) ΔcrgSm0(T)=(ΔcrgHm0(T)−ΔcrgGm0(T))/T with ΔcrgGm0(T)=−RTln(p/p0) , where p0 is the standard pressure (1 × 10^5 Pa).
For experimental reasons, the sublimation data are obtained at high temperatures. However, in comparison with the effusion methods, the temperatures are much lower, which makes extrapolation to room conditions easier.
Van der Waals molecular volumes ( V^vdw ) were estimated by the program GEPOL [50] using atom radiuses proposed by Kitaigorodskii. The free molecular volume in the crystal lattice was calculated on the basis of the single crystal X-ray diffraction data:(14) V^free=V^mol−V^vdw where V^mol is the molecular volume in crystal lattice, which is estimated by the equation:(15) V^mol=V^cell/Z where V^cell is the unit cell volume and Z is the number of molecules in the unit cell.

[4] = for solubility X2·10^5: p = 0.1 MPa, value is X2·10^5
Description: All the solubility experiments were carried out using the analytical isothermal shake-flask method. […] In brief, an excess amount of API was added to triplicate Pyrex glass tubes containing the respective dissolution media. […] The concentrations of the dissolved APIs were measured spectrophotometrically using a Cary 50 UV-vis spectrophotometer (Varian, Australia) with an accuracy of 2–4%.
Conversion of molarity to mole fraction concentration scale was produced using Equation (10):(10) X2=M2S2/S2(M2−M1)+1000ρ where S2 is molarity of API (mol·L^−1), M1 and M2 are the molar masses of solvent and solute, respectively, and ρ (g·cm^−3) is the density of the pure solvents. The mole fraction solubilities for buffer solutions were calculated taking into account the buffer compositions. Densities of buffer solutions (pH 2.0 and 7.4) were measured and published early.
The results are stated as the average of at least three replicated experiments.

[5] = ref Koradia et al. [34]; cited from earlier work
Remark: listed apart in the source
[6] = buffer pH 2.0, 298.15 K (Table 5)
[7] = buffer pH 7.4, 298.15 K (Table 5)

O=C1CNC(=O)N1 [2,4-Imidazolidinedione]
Δgcr Hm0 (298.15) ([1]; ref [7]): 27.8 kcal/mol
ΔgcrGm0 (298.15) ([1]; ref [7]): 13.8 kcal/mol

O=C1CNC(=S)N1 [2-Thiohydantoin]
Δgcr Hm0 (298.15) ([1]; ref [7]): 28.47 kcal/mol
ΔgcrGm0 (298.15) ([1]; ref [7]): 14.4 kcal/mol

O=C1NCCN1 [2-imadazolidinone]
Δgcr Hm0 (298.15) ([1]; ref [5]): 20 kcal/mol
ΔgcrGm0 (298.15) ([1]; ref [5]): 10.2 kcal/mol

O=Cc1ccc(-c2ccc([N+](=O)[O-])cc2)o1 [5-(4-nitrophenyl)-furan-2-carbaldehyde]
Δgcr Hm0 (298.15) ([1]; ref [8]): 32.48 kcal/mol
ΔgcrGm0 (298.15) ([1]; ref [8]): 15.6 kcal/mol

O=C1CN(/N=C/c2ccc([N+](=O)[O-])o2)C(=O)N1 [NFT, nitrofurantoin]
TΔSsol0 ([2]; 1-octanol, 298.15 K): 4.18 kcal/mol
ΔGsol0 ([2]; 1-octanol, 298.15 K): 6.07 kcal/mol
ΔHsol0 ([2]; 1-octanol, 298.15 K): 10.2 ± 0.406 kcal/mol
ΔSsol0 ([2]; 1-octanol, 298.15 K): 58.5 ± 2.5 J·K^−1·mol^−1
TΔSsol0 ([2]; buffer pH 2.0, 298.15 K): -0.22 kcal/mol
ΔGsol0 ([2]; buffer pH 2.0, 298.15 K): 6.57 kcal/mol
ΔHsol0 ([2]; buffer pH 2.0, 298.15 K): 6.36 ± 0.669 kcal/mol
ΔSsol0 ([2]; buffer pH 2.0, 298.15 K): −3.1 ± 3.7 J·K^−1·mol^−1
TΔSsol0 ([2]; buffer pH 7.4, 298.15 K): 2.84 kcal/mol
ΔGsol0 ([2]; buffer pH 7.4, 298.15 K): 6.12 kcal/mol
ΔHsol0 ([2]; buffer pH 7.4, 298.15 K): 8.96 ± 0.454 kcal/mol
ΔSsol0 ([2]; buffer pH 7.4, 298.15 K): 39.9 ± 2.7 J·K^−1·mol^−1
ςHsolv ([2]; 1-octanol, 298.15 K): 70.3%
ςHsolv ([2]; buffer pH 2.0, 298.15 K): 65.8%
ςHsolv ([2]; buffer pH 7.4, 298.15 K): 68.8%
ςTSsolv ([2]; 1-octanol, 298.15 K): 29.7%
ςTSsolv ([2]; buffer pH 2.0, 298.15 K): 34.2%
ςTSsolv ([2]; buffer pH 7.4, 298.15 K): 31.2%
TΔSsolv0 ([2]; 1-octanol, 298.15 K): -10.5 kcal/mol
ΔGsolv0 ([2]; 1-octanol, 298.15 K): -14.3 kcal/mol
ΔHsolv0 ([2]; 1-octanol, 298.15 K): -24.78 kcal/mol
ΔSsolv0 ([2]; 1-octanol, 298.15 K): −147.0 J·K^−1·mol^−1
TΔSsolv0 ([2]; buffer pH 2.0, 298.15 K): -14.9 kcal/mol
ΔGsolv0 ([2]; buffer pH 2.0, 298.15 K): -13.8 kcal/mol
ΔHsolv0 ([2]; buffer pH 2.0, 298.15 K): -28.66 kcal/mol
ΔSsolv0 ([2]; buffer pH 2.0, 298.15 K): −208.6 J·K^−1·mol^−1
TΔSsolv0 ([2]; buffer pH 7.4, 298.15 K): -11.8 kcal/mol
ΔGsolv0 ([2]; buffer pH 7.4, 298.15 K): -14.2 kcal/mol
ΔHsolv0 ([2]; buffer pH 7.4, 298.15 K): -26.05 kcal/mol
ΔSsolv0 ([2]; buffer pH 7.4, 298.15 K): −165.6 J·K^−1·mol^−1
298.15⋅ΔcrgSm0(298.15K) ([3]; 298.15 K): 14.7 kcal/mol
ΔcrgGm0(298.15), sublimation Gibbs energy ([3]; 298.15 K): 20.4 kcal/mol
ΔcrgHm0(298.15K), sublimation enthalpy ([3]; 298.15 K): 35.01 ± 0.17 kcal/mol
ΔcrgSm0(298.15K), sublimation entropy ([3]; 298.15 K): 205.5 ± 2.8 J·mol^−1·K^−1
ΔcrgHm0(T), sublimation enthalpy ([3]; at experimental temperature T): 33.44 ± 0.17 kcal/mol
ςH ([3]; enthalpy term of sublimation, 298.15 K): 70.5%
ςTS ([3]; entropy term of sublimation, 298.15 K): 29.5%
p(298.15K), saturated vapor pressure ([3]; extrapolated to 298.15 K): 1.19·10^−10 Pa
β = V^free/V^vdw ([3]; free volume in the crystal lattice over van der Waals volume): 36.3%
X2 (solubility) ([4]; 1-octanol, 298.15 K (Table 5)): 3.61·10^5 mol.frac.
solubility X2·10^5 ([4]; 1-octanol, 298.15 K): 3.61 mol. frac.
solubility X2·10^5 ([4]; 1-octanol, 303.15 K): 4.97 mol. frac.
solubility X2·10^5 ([4]; 1-octanol, 308.15 K): 6.53 mol. frac.
solubility X2·10^5 ([4]; 1-octanol, 313.15 K): 8.26 mol. frac.
X2 (solubility) [4, 6]: 1.49·10^5 mol.frac.
solubility X2·10^5 ([4]; buffer pH 2.0, 298.15 K): 1.49 mol. frac.
solubility X2·10^5 ([4]; buffer pH 2.0, 303.15 K): 1.82 mol. frac.
solubility X2·10^5 ([4]; buffer pH 2.0, 308.15 K): 2.26 mol. frac.
solubility X2·10^5 ([4]; buffer pH 2.0, 313.15 K): 2.46 mol. frac.
X2 (solubility) [4, 7]: 3.28·10^5 mol.frac.
solubility X2·10^5 ([4]; buffer pH 7.4, 298.15 K): 3.28 mol. frac.
solubility X2·10^5 ([4]; buffer pH 7.4, 303.15 K): 4.33 mol. frac.
solubility X2·10^5 ([4]; buffer pH 7.4, 308.15 K): 5.51 mol. frac.
solubility X2·10^5 ([4]; buffer pH 7.4, 313.15 K): 6.72 mol. frac.

O=C1CCC(=O)N1 [Succinimide]
Δgcr Hm0 (298.15) ([1]; ref [6]): 20 kcal/mol
ΔgcrGm0 (298.15) ([1]; ref [6]): 8.77 kcal/mol

O.O=C1CN(/N=C/c2ccc([N+](=O)[O-])o2)C(=O)N1 [[NFT + H2O], nitrofurantoin monohydrate]
activation energy of dehydration process [5]: 46.8 to 47.1 kcal/mol
TΔSsol0 ([2]; buffer pH 2.0, 298.15 K): 5.04 kcal/mol
ΔGsol0 ([2]; buffer pH 2.0, 298.15 K): 7 kcal/mol
ΔHsol0 ([2]; buffer pH 2.0, 298.15 K): 12.1 ± 0.406 kcal/mol
ΔSsol0 ([2]; buffer pH 2.0, 298.15 K): 70.9 ± 2.6 J·K^−1·mol^−1
TΔSsol0 ([2]; buffer pH 7.4, 298.15 K): 10.6 kcal/mol
ΔGsol0 ([2]; buffer pH 7.4, 298.15 K): 6.41 kcal/mol
ΔHsol0 ([2]; buffer pH 7.4, 298.15 K): 17.2 ± 0.287 kcal/mol
ΔSsol0 ([2]; buffer pH 7.4, 298.15 K): 148.5 ± 2.0 J·K^−1·mol^−1
ΔHw, vaporization enthalpy of water from the crystal (from DSC and TG, Equation (4)): 14.4 kcal/mol
sublimation enthalpy computed using Equation (5) (thermodynamic cycle: sublimation enthalpy of NFT + ΔHw): 47.85 kcal/mol
difference between equilibrium solubility of the monohydrate and solubility of anhydrous NFT ([4]; 313.15 K): ≤ 15%
X2 (solubility) [4, 6]: 0.73·10^5 mol.frac.
solubility X2·10^5 ([4]; buffer pH 2.0, 298.15 K): 0.73 mol. frac.
solubility X2·10^5 ([4]; buffer pH 2.0, 303.15 K): 1.07 mol. frac.
solubility X2·10^5 ([4]; buffer pH 2.0, 308.15 K): 1.43 mol. frac.
solubility X2·10^5 ([4]; buffer pH 2.0, 313.15 K): 1.96 mol. frac.
X2 (solubility) [4, 7]: 1.98·10^5 mol.frac.
solubility X2·10^5 ([4]; buffer pH 7.4, 303.15 K): 2.34 mol. frac.
solubility X2·10^5 ([4]; buffer pH 7.4, 308.15 K): 3.83 mol. frac.
solubility X2·10^5 ([4]; buffer pH 7.4, 313.15 K): 5.90 mol. frac.
